Results as given in paper PMC11109052, “Metabolism characterization and toxicity of N-hydap, a marine candidate drug for lung cancer therapy by LC–MS method” (Natural Products and Bioprospecting, 2024).

Experiments:
Ugt1a1 [1] = assay: Western blot protein level after 7 days gavage: UGT1A1; assay type: in vivo; conditions: mice, p.o. 7 days; liver
Method: (§1) Mice were randomly divided into four groups, with eight animals in each group. The mice received oral pretreatment with N-hydap for 7 days at doses of 2, 5, and 10 mg/kg/day, which were considered as the low dose, medium dose, and high dose, respectively. Correspondingly, the control group received PBS. On the 8th day, the liver and kidneys were removed, and organs from eight mice per group were combined to prepare MLMs and MKMs using the detailed procedures above. Subsequently, we determined the activity of CYP and UGT enzymes by specific substrate metabolized with MLMs (0.5 mg/mL) and MKMs (0.2 mg/mL) in vitro. […] In the ex vivo experiments, the activity of enzymes was measured by quantifying the production of various metabolites (nM/mg protein/min). […] The measurements were performed using multiple reaction monitoring (MRM) transitions, which are specific mass spectrometry transitions used for quantification. […]
(§2) After 7 days of N-hydap gavage, the liver and kidney tissues were lysed using RIPA buffer supplemented with a 1% protease inhibitor cocktail. […] Western blot signals were detected using an ECL chemiluminescence detection agent. The relative intensity of each protein band was scanned and quantified using Image J software.

CYP3A4 = assay: Western blot protein level after 7 days gavage: CYP3A4; assay type: in vivo; conditions: mice, p.o. 7 days; liver and kidney (either tissue)
Method: as §1, §2

UGT1A3 = target: T1, UGT1A3 (Homo sapiens, UniProt P35503); assay: Incubation with recombinant human UGT isoforms: UGT1A3; assay type: in vitro ADME; conditions: recombinant UGT 2 μg/mL
T1 construct: purchased Cypex (Scotland, UK)
Method: (§3) Incubation of N-hydap (2.5 μM) with eight recombinant human CYP enzymes (CYP1A2, CYP2B6, CYP2C9, CYP2C19, CYP2D6, CYP3A4, CYP4A11 and CYP4F2) at three enzyme concentrations (2, 4, and 20 μg/mL) was conducted following the same procedure as described above for microsomes. Subsequently, incubation with N-hydap (1, 2.5, and 6 μM) and twelve recombinant human UGT isoforms (UGT1A1, UGT1A3, UGT1A4, UGT1A6, UGT1A7, UGT1A8, UGT1A9, UGT1A10, UGT2B4, UGT2B7, UGT2B15 and UGT2B17) was performed, with the enzyme concentration used at 2 μg/mL. All reactions were carried out in triplicate.

CYP2D6 = assay: DME activity ex vivo in MLMs and MKMs: CYP2D6 (DXO from DM); parameters: species or system mice; key to CYP2D6 Enzymatic activity: ↑: up-regulation; ↓: down-regulation; –: no change
Method: Mice were randomly divided into four groups, with eight animals in each group. The mice received oral pretreatment with N-hydap for 7 days at doses of 2, 5, and 10 mg/kg/day, which were considered as the low dose, medium dose, and high dose, respectively. Correspondingly, the control group received PBS. On the 8th day, the liver and kidneys were removed, and organs from eight mice per group were combined to prepare MLMs and MKMs using the detailed procedures above. Subsequently, we determined the activity of CYP and UGT enzymes by specific substrate metabolized with MLMs (0.5 mg/mL) and MKMs (0.2 mg/mL) in vitro. Specifically, the following selective substrates were used for the respective enzymes: PH (1 μM) for CYP1A2, DIC (1 μM) for CYP2C9, MP (90 μM) for CYP2C19, DM (1 μM) for CYP2D6, CZX (10 μM) for CYP2E1, Tes (1 μM) for CYP3A4, SN38 (1 μM) for UGT1A1, CACD (100 μM) for UGT1A3, Sero (20 μM) for UGT1A6, and Prop (1 μM) for UGT1A9. All substrates were dissolved in methanol or DMSO. The incubation procedure was carried out as mentioned above, and the reaction was terminated with VER (20 ng/mL) in ESI+ mode and CLP (200 ng/mL) in ESI− mode. In the ex vivo experiments, the activity of enzymes was measured by quantifying the production of various metabolites (nM/mg protein/min). The metabolites and their corresponding enzymes are as follows: APAP from PH, 4-OH-DIC from DIC, 4-OH-MP from MP, DXO from DM, 6-OH-CZX from CZX, 6-OH-Tes from Tes, SN38-G from SN38, CACD-G from CACD, Sero-G from Sero, Prop-G from Prop. The measurements were performed using multiple reaction monitoring (MRM) transitions, which are specific mass spectrometry transitions used for quantification. The optimized parameters for each metabolite, such as declustering potential and collision energy, were described in Supplementary Table 1. All experiments were conducted in triplicate, to ensure accuracy and reproducibility.

UGT1A1 [2] = target: T2, UGT1A1 (Homo sapiens, UniProt P22309); assay: Incubation with recombinant human UGT isoforms: UGT1A1; assay type: in vitro ADME; conditions: recombinant UGT 2 μg/mL
T2 construct: purchased Cypex (Scotland, UK)
Method: as §3

T2 sequence (P22309 26-533): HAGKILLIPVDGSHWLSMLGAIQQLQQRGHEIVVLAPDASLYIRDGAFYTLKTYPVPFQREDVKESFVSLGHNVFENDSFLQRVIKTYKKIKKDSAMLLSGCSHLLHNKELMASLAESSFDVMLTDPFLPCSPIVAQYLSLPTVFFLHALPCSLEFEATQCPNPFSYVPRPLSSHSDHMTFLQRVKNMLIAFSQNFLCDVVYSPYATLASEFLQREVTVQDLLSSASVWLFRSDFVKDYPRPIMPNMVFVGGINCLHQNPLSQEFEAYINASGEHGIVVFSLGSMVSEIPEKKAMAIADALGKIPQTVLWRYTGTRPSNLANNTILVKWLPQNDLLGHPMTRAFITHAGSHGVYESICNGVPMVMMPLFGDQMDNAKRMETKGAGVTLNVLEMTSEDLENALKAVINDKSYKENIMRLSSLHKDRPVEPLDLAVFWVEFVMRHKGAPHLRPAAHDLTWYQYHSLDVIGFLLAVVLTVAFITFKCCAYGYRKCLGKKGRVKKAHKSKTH
T1 sequence (P35503 29-534): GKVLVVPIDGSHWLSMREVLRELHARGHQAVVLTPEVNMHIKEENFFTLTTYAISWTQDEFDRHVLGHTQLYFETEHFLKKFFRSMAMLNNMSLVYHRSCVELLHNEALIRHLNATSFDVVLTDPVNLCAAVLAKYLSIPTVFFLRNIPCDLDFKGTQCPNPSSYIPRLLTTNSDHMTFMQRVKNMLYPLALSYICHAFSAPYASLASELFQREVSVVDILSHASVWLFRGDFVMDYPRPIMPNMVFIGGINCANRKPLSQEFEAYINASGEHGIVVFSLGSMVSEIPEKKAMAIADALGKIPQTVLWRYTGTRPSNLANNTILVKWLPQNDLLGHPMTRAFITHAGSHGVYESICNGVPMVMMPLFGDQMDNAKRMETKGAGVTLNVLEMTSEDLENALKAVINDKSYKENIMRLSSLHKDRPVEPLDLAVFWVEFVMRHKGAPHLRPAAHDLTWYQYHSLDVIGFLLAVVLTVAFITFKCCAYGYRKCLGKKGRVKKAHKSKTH

SMILES: CC1CCC2C(C=CC(C)C2C(=O)c2c(O)c(C3(O)CCC(O)C4OC43)cn(O)c2=O)C1 (centres unmarked) [N-hydap, N-Hydroxyapiosporamide]
- protein levels of UGT1A1 (Ugt1a1 [1]): slightly down-regulated
- protein levels of CYP3A4 (CYP3A4): no significant changes
- share of N-hydap glucuronidation by UGT1A3 (UGT1A3): over 80%
- CYP2D6 Enzymatic activity (CYP2D6; Kidney): ↑
- CYP2D6 Enzymatic activity (CYP2D6; Liver): ↓
- CYP2D6 inhibitor, experimental results (CYP2D6; Table 4 experimental column): Inhibition in the liver
- reduction of formation rate of DXO vs control (CYP2D6; liver microsomes of mice pretreated 7 days p.o.): 54%
- contribution of UGT1A1 to formation of N-hydap-G (UGT1A1 [2]): secondary contributors
